From patent publication US11135193B2, “Composition containing monoacetyldiacylglycerol compound as active ingredient for preventing or treating asthma” (Enzychem Lifesciences Corporation, priority 2013, dated 2021)
Like-named read-outs stand apart in the source and are kept apart here. Marks after values point to notes of the source that are not given here.

What was measured:
[1] = tested on: IL-4 mRNA; assay: Inhibition of PMA-induced expression of IL-4 mRNA in EL-4 cells (PCR); format: cell-based, mouse; settings: 20 μg/mL, PMA 1 ng/mL; for Inhibition (%) of IL-4 mRNA expression: compared to PMA-treated group
Description: Based on the results of Example 1, each of the monoacetyldiacylglycerol compounds was added to EL-4 cells at a concentration of 20 μg/mL, and the effect thereof on the inhibition of PMA-induced expression of IL-4 mRNA in the EL-4 cells was measured. Specifically, the expression level of IL-4 mRNA induced by PMA (1 ng/mL) was measured using real-time polymerase chain reaction (real-time PCR) and quantitative real time polymerase chain reaction (qPCR). For cell preparation, EL-4 cells were seeded into a 6-well plate at a concentration of 1×10^6 cells/well and cultured for 12 hours, after which the cells were treated with each of the monoacetyldiacylglycerol compounds at a concentration of 20 μg/mL for 1 hour and treated with PMA at a concentration of 1 ng/ml, followed by culture for 12 hours. Total RNA was extracted from the cells using Trizol B (Invitrogen, USA) and quantified, and then cDNA was synthesized from the total RNA using an Omniscript RT kit (Qiagen, GmbH, Hilden, Germany). The synthesized cDNA as a template was mixed with each of the IL-4 and GAPDH primers shown in Table 2 below and was subjected to PCR using a PCR mix (PCR Master Mix, Bioneer, Korea) under the following conditions: denaturation at 94° C. for 5 minutes; and then 30 cycles, each consisting of 30 sec at 95° C., 45 sec at 60° C., and 45 sec at 72° C.; followed by enzyme inactivation at 72° C. for 10 minutes. The results of measuring the percent inhibition of expression of IL-4 mRNA in EL-4 cells as described above are shown in Table 3 below. The designation of each of the samples shown in Table 3 below is as described with respect to Table 1 above.

[2] = tested on: EL-4 cells; assay: Cytotoxicity of monoacetyldiacylglycerol compounds in EL-4 cells (CCK-8 cell viability); settings: 24 hours
Description: (§2) EL-4 cells that are mouse T lymphoma cells were suspended in 10% fetal bovine serum-containing RPMI medium (Gibco) at a concentration of 5×10^4 cells/ml, and 100 μl of the cell suspension was seeded into each well of a 96-well plate and cultured for 12 hours. Next, the cell culture was treated with monoacetyldiacylglycerol (MADG) compounds at the concentrations shown in Table 1 below, and was then additionally cultured for 24 hours. Next, according to the instruction provided in a CCK-8 kit (Dojindo) capable of counting cells, 10 μl of CCK-8 solution was added to the kit and allowed to react for 30 minutes to 4 hours, and then the absorbance (OD) at 570 nm was measured. In equation 1, the negative control group indicates a cell culture treated with 0.2% DMSO. […] Cell viability (%)=[(OD 570 nm value of MADC-treated group)/(OD 570 nm value of negative control group)]×100 Equation 1

[3] = tested on: ovalbumin-induced asthma Balb/c mice; assay: Airway hyperresponsiveness (Pehn, plethysmography) in ovalbumin-induced asthma model; format: in vivo, mouse; settings: 30 mg/kg oral
Description: (§1) 6-week-old female SPF (specific pathogen-free) Balb/c mice (average weight: 20 g) were purchased from Samtako (Korea). The animals were sufficiently fed with solid feed (antibiotic-free, Samyang Feed Co.) and water until the start point of the experiment, and acclimated at a temperature of 22±2° C., a humidity of 55±15%, and a 12-hr light/12-hr dark cycle for 1 week, and then used in experiments. After 1 week of the acclimation period as described above, the mice were sensitized by intraperitoneal administration of a suspension of 2 mg of aluminum oxide (A8222, Sigma-Aldrich, MO, USA) and 20 μg of ovalbumin (A5503, Sigma-Aldrich) in 200 μl of phosphate buffered saline at two-week intervals. During a period from day 21 to day 23 after the first intraperitoneal administration of ovalbumin, 1% ovalbumin was inhaled into the mice for 30 minutes using an ultrasonic nebulizer (NE-U12, Omron Corp., Japan). At 24 hours after the last ovalbumin challenge, the airway hyperresponsiveness of the mice was measured, and after 48 hours, the mice were anesthetized by intraperitoneal administration of Pentobarbital (50 mg/kg, Entobal, Hanil, Korea). Then, blood was collected through the saphenous vein, and the mice were subjected to tracheostomy. Next, each of the mice was subjected to bronchoalveolar lavage with a total of 1.4 ml of PBS to collect an analytical sample. […] The drug and the sample were administered orally during a period from day 18 to day 23 after the first ovalbumin […] (FIG. 1). Seven mice were used per group.
To measure airway hyperresponsiveness that is one of the major features of asthma, one chamber plethysmography (All Medicus, Korea) was used. The degree of airway resistance was evaluated by measuring enhanced pause (Pehn). For measurement of Pehn, the basis value was measured in a normal breathing state, and then PBS was inhaled for 3 minutes using an ultrasonic nebulizer, after which the Pehn value was measured for 3 minutes.

[4] = tested on: ovalbumin-induced asthma Balb/c mice; assay: Inflammatory cell count in bronchoalveolar lavage fluid, ovalbumin-induced asthma model; format: in vivo, mouse; settings: BALF; 30 mg/kg oral
Description: as §1
An increase in the number of eosinophils is one of the major features of asthma. Thus, in order to measure the number of eosinophils, the following experiment was performed. The bronchoalveolar lavage fluid from each mouse was stained with trypan blue immediately after collection, and the number of total cells (excluding dead cells) was calculated using a hemocytometer.

[5] = tested on: interleukins (IL-4, IL-5 and IL-13); assay: Th2 cytokines in bronchoalveolar lavage fluid (ELISA), ovalbumin-induced asthma model; format: in vivo, mouse; settings: BALF; 30 mg/kg oral
Description: as §1
The production of interleukins (IL-4, IL-5 and IL-13) in the bronchoalveolar lavage fluid isolated from each mouse was measured using a commercially available enzyme-linked immunosorbent assay (ELISA) kit (R&D System, USA). The analysis of each cytokine was performed according to the manufacturer's instruction, and the absorbance at 450 nm was measured using an ELISA reader (Molecular Devices, USA).

[6] = tested on: serum IgE and ovalbumin-specific IgE; assay: Serum IgE and ovalbumin-specific IgE (ELISA), ovalbumin-induced asthma model; format: in vivo, mouse; settings: 30 mg/kg oral
Description: as §1
The blood collected through the saphenous vein was incubated at room temperature for 30 minutes, and then centrifuged (3000 rpm, 15 min) to obtain serum. For measurement of serum IgE and ovalbumin-specific IgE, ELISA was used. IgE was measured using commercially available IgE (Biolegend Ins., USA). For measurement of ovalbumin-specific IgE, in a 96-well flat bottom ELISA plate, ovalbumin was dissolved in 0.1 M NaHCO3 buffer (pH 8.3) at a concentration of 20 μg/mL and incubated at 4° C. for 16 hours. Next, PBS containing 1% bovine serum albumin (BSA) was added to suppress nonspecific reactions. The serum sample was diluted at 1:400, allowed to react at room temperature for 2 hours, and then washed with PBS containing 0.05% Tween 20. Horseradish peroxidase (HRP)-conjugated goat […] polyclonal A was diluted 4000-fold and allowed to react at room temperature for 1 hour, and then color development was performed using 3,3′5,5′-tetramethylbenzidine substrate.

[7] = tested on: EL-4 cells; settings: mouse, 24 h
Description: as §2

## CCCCC/C=C\C/C=C\CCCCCCCC(=O)OCC(COC(C)=O)OC(=O)CCCCCCCCCCCCCCC (stereo not drawn) [LPAG, 1-linoeoyl-2-palmitoyl-3-acetylglycerol]
[1]
  Expression level of IL-4 mRNA (percentage relative to PMA-treated group): 61.11 ± 27.49%
  Inhibition (%) of IL-4 mRNA expression: 38.89%
[2]; 5 μg/ml
  EL-4 cell viability (%, mean ± SD): 99.67 ± 1.15%
[2]; 10 μg/ml
  EL-4 cell viability (%, mean ± SD): 98.91 ± 0.50%
[2]; 20 μg/ml
  EL-4 cell viability (%, mean ± SD): 99.13 ± 1.18%

## CCCCC/C=C\C/C=C\CCCCCCCC(=O)OCC(COC(C)=O)OC(=O)CCCCCCCCCCCCCCCCC (stereo not drawn) [LSAG, 1-linoeoyl-2-stearoyl-3-acetylglycerol]
[1]
  Expression level of IL-4 mRNA (percentage relative to PMA-treated group): 41.62 ± 17.61%
  Inhibition (%) of IL-4 mRNA expression: 58.38%
[2]; 5 μg/ml
  EL-4 cell viability (%, mean ± SD): 103.82 ± 1.80%
[2]; 10 μg/ml
  EL-4 cell viability (%, mean ± SD): 101.85 ± 1.00%
[2]; 20 μg/ml
  EL-4 cell viability (%, mean ± SD): 98.15 ± 1.82%

## CC(C)(O)c1ccccc1CC[C@@H](SCC1(CC(=O)O)CC1)c1cccc(/C=C/c2ccc3ccc(Cl)cc3n2)c1 [Mon, montelukast, reference compound]
[3]; methacholine 0 mg/mL
  Pehn value: 0.590 ± 0.07
[3]; methacholine 12.5 mg/mL
  Pehn value: 1.261 ± 0.29
[3]; methacholine 25 mg/mL
  Pehn value: 3.046 ± 0.61
[3]; methacholine 50 mg/mL
  Pehn value: 4.182 ± 0.99
[4]
  Inflammatory cell number, Eosinophils: 54 ± 17.8* 10^5 per mouse
  Inflammatory cell number, Lymphocytes: 11 ± 10.6 10^5 per mouse
  Inflammatory cell number, Macrophages: 99 ± 21.4* 10^5 per mouse
  Inflammatory cell number, Neutrophils: 14 ± 5.2 10^5 per mouse
  Inflammatory cell number, Total cells: 179 ± 44.0* 10^5 per mouse
[5]
  Th2 cytokines, IL-4: 18.69 ± 3.00 pg/mL
  Th2 cytokines, IL-5: 22.74 ± 3.59 pg/mL
  Th2 cytokines, IL-13: 81.42 ± 25.59 pg/mL
[6]
  IgE: 2.03 ± 0.49 µg/mL
  OVA specific IgE: 198.15 ± 42.65 µg/mL

## CCCCCCCC/C=C\CCCCCCCC(=O)OCC(COC(C)=O)OC(=O)CCCCCCCCCCCCCCC (stereo not drawn) [OPAG, 1-oleoyl-2-palmitoyl-3-acetylglycerol]
[7]; 5 μg/ml
  EL-4 cell viability (%, mean ± SD): 98.04 ± 0.94%
[7]; 10 μg/ml
  EL-4 cell viability (%, mean ± SD): 98.91 ± 1.68%
[7]; 20 μg/ml
  EL-4 cell viability (%, mean ± SD): 99.56 ± 2.86%

## CCCCCCCC/C=C\CCCCCCCC(=O)OCC(COC(C)=O)OC(=O)CCCCCCCCCCCCCCCCC (stereo not drawn) [OSAG, 1-oleoyl-2-stearoyl-3-acetylglycerol]
[7]; 5 μg/ml
  EL-4 cell viability (%, mean ± SD): 102.62 ± 2.18%
[7]; 10 μg/ml
  EL-4 cell viability (%, mean ± SD): 100.98 ± 2.37%
[7]; 20 μg/ml
  EL-4 cell viability (%, mean ± SD): 100.22 ± 0.68%

## CCCCCCCC/C=C\CCCCCCCC(=O)OC(COC(C)=O)COC(=O)CCCCCCCCCCCCCCC (stereo not drawn) [POAG, 1-palmitoyl-2-oleoyl-3-acetylglycerol]
[7]; 5 μg/ml
  EL-4 cell viability (%, mean ± SD): 106.94 ± 2.69%
[7]; 10 μg/ml
  EL-4 cell viability (%, mean ± SD): 106:39 ±1.19%
[7]; 20 μg/ml
  EL-4 cell viability (%, mean ± SD): 98.90 ± 1.16%

## CCCCCCCCCCCCCCCC(=O)OCC(COC(C)=O)OC(=O)CCCCCCCCCCCCCCC (stereo not drawn) [PPAG, 1-palmitoyl-2-palmitoyl-3-acetylglycerol]
[7]; 5 μg/ml
  EL-4 cell viability (%, mean ± SD): 106.28 ± 1.39%
[7]; 10 μg/ml
  EL-4 cell viability (%, mean ± SD): 105.84 ± 1.38%
[7]; 20 μg/ml
  EL-4 cell viability (%, mean ± SD): 96.59 ± 0.69%

## CCCCCCCCCCCCCCCCCC(=O)OC(COC(C)=O)COC(=O)CCCCCCCCCCCCCCC (stereo not drawn) [PSAG, 1-palmitoyl-2-stearoyl-3-acetylglycerol]
[7]; 5 μg/ml
  EL-4 cell viability (%, mean ± SD): 98.46 ± 0.33%
[7]; 10 μg/ml
  EL-4 cell viability (%, mean ± SD): 100.66 ± 1.25%
[7]; 20 μg/ml
  EL-4 cell viability (%, mean ± SD): 103.30 ± 2.15%
